# Values of other authors as cited in patent publication US11154507B2, “Freeze-dried aripiprazole formulation” (OTSUKA PHARMACEUTICAL CO., LTD., priority 2011, dated 2021).
# Conditions: room temperature
smiles,measurement,value
O=C1CCc2ccc(OCCCCN3CCN(c4cccc(Cl)c4Cl)CC3)cc2N1 [Aripiprazole],solubility in water,< 1 µg/mL
